Consider 39 sequences from the OligoGym collection.

“And” between values parts separate entries of the source, which are not always exact repeats. Equal entries are not always repeated. After the bases stand the sugars from the 5' end (letter, count) and the backbone: PS all phosphorothioate, else s phosphorothioate and o phosphodiester by linkage. Methylation of C is not given here. e = 2'-O-(2-methoxyethyl) (MOE); d = 2'-deoxy (DNA)

The target in the data set is DGAT2. The note with it: ASO.

The sequence “AGATGGACAGGTGATTCTAA (sugars e5 d10 e5, PS)” returned a target mRNA inhibition (HepG2, 0.12 µM) of 50%. On to “ACCCAACCTTTAAGGCCTAT (sugars e5 d10 e5, PS)”, for which the target mRNA inhibition reads like this: (HepG2, 2.5 µM) 69% and 59% and 70%; (HepG2, 10 µM) 93% and 91% and 95%. “CCTCCTCGAAGATCACCTGC (sugars e5 d10 e5, PS)” had a target mRNA inhibition (HepG2, 0.12 µM) of 49%. The same measure, in the same setting: to “ACCCCGGAGTAGGCGGCTAT (sugars e5 d10 e5, PS)” belongs 46%. For the sequence “GGACAGCTGTGATGACTTCC (sugars e5 d10 e5, PS)”, the target mRNA inhibition reads like this: (HepG2, 2.5 µM) 55%; (HepG2, 10 µM) 76%. For “GGGTCAAGGTCACTCAGCCA (sugars e5 d10 e5, PS)”, for the setting “HepG2, 0.12 µM”, the target mRNA inhibition was 33%.

On to “AGACATCAGGTACTCCCTCA (sugars e5 d10 e5, PS)”, for which the target mRNA inhibition (HepG2, 0.12 µM) was determined as 35%. Consider “TGCAGGCCCAGCACCAAGGA (sugars e5 d10 e5, PS)”, for which the target mRNA inhibition runs as follows: (HepG2, 2.5 µM) 19%; (HepG2, 10 µM) 39%. Regarding “GGTTTACTGCATAGCTGAGC (sugars e5 d10 e5, PS)”, the target mRNA inhibition runs as follows: (HepG2, 2.5 µM) 79% and 72%; (HepG2, 10 µM) 86% and 76%. Take “GTACACTTCATTCTCTCCAA (sugars e5 d10 e5, PS)”: the target mRNA inhibition (HepG2, 0.12 µM) was 82%. Take “GGTTGTGTGTCTTCACCAGC (sugars e3 d14 e3, PS)”: the target mRNA inhibition (HepG2, 0.12 µM) came out at 70%. “CCACTGTGACCTCCTGCCAC (sugars e5 d10 e5, PS)” registered a target mRNA inhibition (HepG2, 0.12 µM) of 30%.

Take “GGTAAGGCCGTATGCCTGGG (sugars e2 d13 e5, PS)”: the target mRNA inhibition (HepG2, 0.12 µM) was determined as 53%. In the case of “GAGTAGGGCACCAGCCCCCA (sugars e5 d10 e5, PS)”, where the note is “HepG2, 0.12 µM”, the target mRNA inhibition is 0%. As for “GCTGTGATGACTTCCCAGGG (sugars e5 d10 e5, PS)”, the target mRNA inhibition stood at 75% (HepG2, 2.5 µM) and 86% (HepG2, 10 µM). Consider “CATTGCCACTCCCATTCTTT (sugars e2 d13 e5, PS)”, for which the target mRNA inhibition (HepG2, 0.12 µM) amounted to 40%. As to “ACCAGGGCCTCCATGTACAT (sugars e2 d13 e5, PS)”, the target mRNA inhibition (HepG2, 0.12 µM) came out at 50%. As for “ATCCTGGAGGCCAGTCCAGG (sugars e5 d10 e5, PS)”, for the setting “HepG2, 0.12 µM”, the target mRNA inhibition was 18%. As to “TCCAGGACCCTGGACATGAT (sugars e5 d10 e5, PS)”, under “HepG2, 0.12 µM”, the target mRNA inhibition amounted to 50%. “ATTCATCTTTCCAGATCCGG (sugars e5 d10 e5, PS)”: the target mRNA inhibition (HepG2, 2.5 µM) was 92% and the target mRNA inhibition (HepG2, 10 µM) was determined as 88%.

For the sequence “GCCATCATACTAGACTATGC (sugars e5 d10 e5, PS)”, the target mRNA inhibition was 88% and 81% (HepG2, 2.5 µM); 91% and 90% (HepG2, 10 µM). As for “GAGTAAGGGTATTCTGCTCA (sugars e5 d10 e5, PS)”, the target mRNA inhibition (HepG2, 10 µM) was 91% and 93% and 96%. “CTCTGCGCGATTCACTGAGG (sugars e5 d10 e5, PS)”: the target mRNA inhibition runs as follows: (HepG2, 2.5 µM) 53%; (HepG2, 10 µM) 86%.

As to “GCAATGCCAATGCCTAG (sugars e3 d10 e4, PS)”, the target mRNA inhibition reads like this: (HepG2, 2.5 µM) 69% and 80%; (HepG2, 10 µM) 78% and 87%.

As for “TCAGAGACTCAGCCGCACCC (sugars e5 d10 e5, PS)”, the target mRNA inhibition (HepG2, 0.12 µM) was 43% and 55%. With “CCATGTCAGAGAGGCTC (sugars e3 d10 e4, PS)”, the target mRNA inhibition (HepG2, 2.5 µM) is 81% and 76%. In the case of “TAGAGCACTTGATCTGGGAC (sugars e5 d10 e5, PS)”, the target mRNA inhibition reads like this: (HepG2, 2.5 µM) 38% and 46%; (HepG2, 10 µM) 81% and 85%. “GCAATGTTGCCATCATA (sugars e3 d10 e4, PS)”: the target mRNA inhibition was 69% and 76% (HepG2, 2.5 µM); 90% and 95% (HepG2, 10 µM).

The sequence “GCAGATGGACAGGTGATTCT (sugars e5 d10 e5, PS)” returned a target mRNA inhibition (HepG2, 2.5 µM) of 69% and a target mRNA inhibition (HepG2, 10 µM) of 91%. As for “AGAGGTTCAACATCCAATTT (sugars e5 d10 e5, PS)”, the target mRNA inhibition by setting is: (HepG2, 2.5 µM) 0%; (HepG2, 10 µM) 86%. With “AAAACTTAGGCATGCTTCCT (sugars e5 d10 e5, PS)”, the target mRNA inhibition by setting is: (HepG2, 2.5 µM) 53%; (HepG2, 10 µM) 83%. For “CTGGTCCAGGGAGAGACCAA (sugars e5 d10 e5, PS)”, where the note is “HepG2, 0.12 µM”, the target mRNA inhibition was 25%. Consider “GGAAAGGCACAGGCTTTGGG (sugars e5 d10 e5, PS)”, for which the target mRNA inhibition is 57% and 66% (HepG2, 2.5 µM); 92% and 97% (HepG2, 10 µM).

As for “CAAGGATGACCTTGGGTCAG (sugars e5 d10 e5, PS)”, the target mRNA inhibition runs as follows: (HepG2, 2.5 µM) 18%; (HepG2, 10 µM) 44%. “GTCAAACACCAGCCAAGTGA (sugars e5 d10 e5, PS)” returned a target mRNA inhibition (HepG2, 0.12 µM) of 15%. Consider “GTTTGCTCAGTTCTTCCAAC (sugars e5 d10 e5, PS)”, for which the target mRNA inhibition was 83% and 78% (HepG2, 2.5 µM); 94% and 90% (HepG2, 10 µM). For “GCGATTCACTGAGGACC (sugars e3 d10 e4, PS)”, the target mRNA inhibition (HepG2, 10 µM) was 68% and 86%.

For “TAGGCATGCTTCCTCCCACT (sugars e5 d10 e5, PS)”, the target mRNA inhibition runs as follows: (HepG2, 2.5 µM) 65%; (HepG2, 10 µM) 84%. Regarding “TGAGGCCCTTCAGCTTGTGC (sugars e5 d10 e5, PS)”, the target mRNA inhibition (HepG2, 0.12 µM) worked out at 49%.
